According to patent US4298594A, “Xenobiotic delivery vehicles, method of forming them and method of using them” (Arthur D. Little, Inc., priority 1980, dated 1981):
“Also recorded” adds a separate entry of the source.

Experiments:
[1] = affinity for and efflux of estradiol undecanoate from vesicular and nonvesicular microreservoirs; type: physicochemical
Protocol: The resulting liquid was sonicated at 40° C. for 20 minutes under a nitrogen atmosphere and passed down a Sepharose 4B Column. […] The material in the void volume of the column consisted of the nonvesicular form, whereas the material in the internal volume consisted of the vesicular form.

[2] = cited from earlier work
[3] = plasma kinetics of imidocarb in rats, tail vein injection; type: in vivo; details: 24 hours (FIG. 24)
Protocol: Plasma samples were taken at various time points and the amount of imidocarb in these samples was determined by measurements of their radio-activity.

[4] = tissue distribution of free imidocarb and microreservoir-borne imidocarb; type: in vivo, rats; details: 4 hours after injection
Description: Various tissues, such as muscle, spleen, liver and kidney, were taken from the animals. These tissues were combusted in a Searle combustion apparatus and the resulting ^14 CO2 was collected and counted for radioactivity.

P388 leukemia system = details: mouse; cited from earlier work
L1210 leukemia system = details: mouse; cited from earlier work
normal mice = assay: toxicity of adriamycin in normal mice, survival; type: in vivo; details: 4 mg/kg ip daily for five days, six mice; listed as free adriamycin
Protocol: Two dosages levels of the drug were chosen--4 mg/kg and 2 mg/kg. In each case, six normal mice received the injections each day for five days and then they were observed thereafter to determine the number of survivors. The results are plotted in FIG. 16.

L1210 leukemic cells = assay: chemotherapy of L1210 leukemic mice with adriamycin, survival; details: 4 mg/kg ip, days 1 through 5; day 24; listed as free adriamycin
Protocol: 72 normal mice were each innoculated with 10^6 L1210 leukemic cells by intraperitoneal injection on day zero. […] The drug in all cases was also given by intraperitoneal injection and the dosages were repeated daily on days 1 through 5. The dosage levels chosen were 4 mg/kg, 2 mg/kg, 1 mg/kg and 0.5 mg/kg.

[5] = binding of adriamycin to microreservoirs; type: physicochemical
Protocol: With this 2 mg (3.45 μmoles) of adriamycin was used. In the five samples, the amount of phosphatidic acid in the total lipid constituent was varied from zero to 25%. […] The aqueous suspensions were each sonicated at 52° C. for 15 minutes. Each sample was passed down through a 2.5×50 cm Sephadex G-50 gel column to separate free and bound adriamycin.
2875 μmoles of purified soybean phosphatidyl chloine (specific activity 2296 ^3 H dpm/μmole) 720 μmoles of soybean phosphatidic acid and 720 μmoles of cholesteryl oleate (specific activity of 3638 ^14 C dpm/μmole) were dissolved in choloroform and taken to dryness by pumping overnight against a vacuum. The resulting solid material was hydrated with 20 ml of 10 mM of trihydroxymethylamine (pH 9.1) and the liquid was sonicated at 52° C. under a nitrogen atmosphere for 15 minutes. The pH of the solution was lowered to 7.2 and then it was centrifuged for one hour at 100,000 g. 34.9 mg of adriamycin was added to the clear supernatant and it was then allowed to incubate for 30 minutes at room temperature. After this incubation, the ionic strength of the solution was increased to 0.154 M NaCl; and it was passed down a 4.3×37 cm G-50 Sephadex G-50 gel column using 0.154 M NaCl and 10 mM trihydroxymethylamine as the eluting solvent.

P388 tumor cells = details: 4 mg/kg ip daily for 5 days
Protocol: A number of mice were injected intraperitoneally with 1×10^6 P388 tumor cells. […] One group of mice, used as a control, received no drug in any form. Five mice were used for each protocol and two different dosage levels, 4 mg/kg and 2 mg/kg, were used.

[6] = plasma kinetics of daunomycin in rats, intravenous
Protocol: A control sample of free daunomycin at the same concentration and in the same buffer was also prepared.
0.5 ml of blood was taken at various time points from each rat. The plasma was separated from the blood samples and assayed for daunomycin fusing fluorescence. The data thus obtained are plotted in FIG. 10 as a function of time after injection.

[7] = in vitro stability of microreservoirs and liposomes (optical density ratio A400/A600, thin layer chromatograms); type: physicochemical; details: after sonication and centrifugation
Protocol: Both of the suspensions were then spun at 100,000 g for one hour to remove any undispersed lipid.
Aliquots of 4 ml of each sample were then placed into stoppered curvettes and the samples were incubated at 37° C. At various points in time optical densities of the two solutions at 400 nm and 600 nm were determined. […] Since both structures initially had essentially the same molecular size, the ratio of A400/A600 is an indication of any increase in the particle size due to the breakdown of the structural organization of the liposome.

[8] = within two minutes after administration; cited from earlier work
[9] = in vivo; cited from earlier work

Structure (SMILES): CCCCCCCCCCC(=O)O[C@H]1CC[C@H]2[C@@H]3CCc4cc(O)ccc4[C@H]3CC[C@]12C [estradiol undecanoate]
- efflux / retention of estradiol undecanoate ([1]; incubated with unsonicated egg phosphatidyl choline dispersion): remained associated with both forms of the microreservoirs
- affinity for vesicular vs nonvesicular microreservoirs ([1]; ratio of estradiol undecanoate to cholesteryl oleate): higher affinity for the vesicular form of the microreservoirs than for the nonvesicular form
- solubility in aqueous buffer / water [2]: essentially insoluble in water

Structure (SMILES): O=C(Nc1cccc(C2=NCCN2)c1)Nc1cccc(C2=NCCN2)c1 [imidocarb]
- imidocarb in the bloodstream after 24 hours [3]: virtually none
- tissue distribution, Kidney ([4]; kidney): 40,194 dpm/gram of tissue
- tissue distribution, Liver ([4]; liver): 27,059 dpm/gram of tissue
- tissue distribution, Muscle ([4]; muscle): 3,985 dpm/gram of tissue
- tissue distribution, Spleen ([4]; spleen): 9,498 dpm/gram of tissue

Structure (SMILES): CCCCC(=O)OCC(=O)C1(O)Cc2c(O)c3c(c(O)c2C(OC2CC(NC(=O)C(F)(F)F)C(O)C(C)O2)C1)C(=O)c1c(OC)cccc1C3=O (stereo not drawn) [AD 32, N-Trifluoroacetyladriamycin-14-Valerate]
- antitumor activity (P388 leukemia system): significantly greater antitumor activity than adriamycin or daunomycin
- antitumor activity (L1210 leukemia system): significantly greater antitumor activity than adriamycin or daunomycin
- solubility in aqueous buffer / water [2]: totally insoluble in an aqueous buffer

Structure (SMILES): COc1cccc2c1C(=O)c1c(O)c3c(c(O)c1C2=O)C[C@@](O)(C(=O)CO)C[C@@H]3O[C@H]1C[C@H](N)[C@H](O)[C@H](C)O1 [adriamycin]
- toxicity (survival at 30 days) (normal mice): highly toxic; also recorded: survival of only one mouse
- therapeutic effect / survivors (L1210 leukemic cells): some therapeutic effect for a short period of time; also recorded: all of the control mice and those receiving the free adriamycin had succumbed to leukemia and/or the toxic effect of the drug
- solubility in aqueous buffer / water [2]: water soluble
- binding of adriamycin to the microreservoirs relative to daunomycin [5]: does not bind as strongly to the microreservoirs as does, for example, daunomycin
- bound adriamycin vs amount of phosphatidic acid ([5]; 80 μmoles total phospholipid, 20 μmoles cholesteryl oleate, 2 mg adriamycin, pH 7.2): increases with increasing amounts of phosphatidic acid
- phosphatidic acid content up to which bound adriamycin increases before levelling off ([5]; relative to total lipids): about 25 mole %

Structure (SMILES): COc1cccc2c1C(=O)c1c(O)c3c(c(O)c1C2=O)C[C@@](O)(C(C)=O)C[C@@H]3O[C@H]1C[C@H](N)[C@H](O)[C@H](C)O1 [daunomycin]
- chemotherapeutic effect / toxicity (survivors) (P388 tumor cells): demonstrated a toxicity measurably greater than the tumor cells
- presence in the bloodstream after 3 3/4 hours ([6]; printed "33/4 hours", 4 mg/kg iv): virtually absent from the bloodstream
- concentration at 0.25 h ([6]; rat, in vivo, iv, 4 mg/kg): ~400 ng/mL
- concentration at 1 h ([6]; rat, in vivo, iv, 10 mg/kg): ~500 ng/mL
- concentration at 3 h ([6]; rat, in vivo, iv, 10 mg/kg): ~300 ng/mL
- concentration at 6 h ([6]; rat, in vivo, iv, 10 mg/kg): ~140 ng/mL
- degradation by thin layer chromatograms of the centrifugates [7]: no evidence of degradation
- fraction left to reach the target tissue [8]: ~5%
- fraction that has left the bloodstream within two minutes [8]: about 95%
- toxicity [9]: known to be toxic, particularly since it tends to concentrate in the heart tissues
